{"source": "patent US8846752B2", "about": "“Isoflavone fatty acid ester derivatives, preparation method and pharmaceutical uses thereof” (China Pharmaceutical University, priority 2010, dated 2014)", "key": {"[1]": {"tested_on": "High Fat Diet Rats", "assay": "Losing weight and depressing blood fat in high-fat diet SD rats", "assay_type": "in vivo", "conditions": "intragastric once a day for a month, compounds 25 mg/kg, sibutramine 1.0 mg/kg, mean ± SD, n = 10", "procedure": "1. Activity Determination of Losing Weight and Depressing Blood Fat of SD Rats\nThe experiment refers to the methods in Experimental Methodology of Pharmacology compiled by Xu Shuyun et al, People's Medical Publishing House 2002: 1189-1201, which is slightly modified.\nSD rates (weight 80 g-100 g, male, clean grade) are randomly divided into the following groups according to the weight:\nBlank control group (normal diet group); model control group (high-fat diet group); sibutramine, 1.0 mg/kg; Group I-1, 25 mg/kg; Group I-2, 25 mg/kg; Group I-3, 25 mg/kg; Group II-1, 25 mg/kg; Group II-2, 25 mg/kg; Group II-3, 25 mg/kg.\nExcept the blank control group, the other groups are fed with high-fat diet for two months. In the third month, all groups are required for intragastric administration and the blank control group and model control group are given appropriate volume of excipients once a day for a consecutive month. After the administration, exsanguinate and kill the rats, take femoral arterial blood and separate the plasma, and then measure the parameters according to the unified operating procedures in the kit instructions. Remove the fat around abdominal cavity and reproductive organs, weigh its wet weight and determine the body weight."}, "[2]": {"conditions": "cited from earlier work"}}}
{"compound": "CCCCCCCC/C=C\\CCCCCCCC(=O)Oc1ccc(-c2coc3cc(OC)ccc3c2=O)cc1", "note": "[II-1, 7-methoxy-4′-O-oleoyl daizeol]", "values": [{"measurement": "Fat index", "setting": "[1]", "value": "5.6 ± 1.6", "unit": "g/100 g"}, {"measurement": "Free fatty acid FFA", "setting": "[1]", "value": "696.3 ± 205.4", "unit": "µmol/L"}, {"measurement": "Total cholesterol TC", "setting": "[1]", "value": "1.65 ± 0.25", "unit": "mmol/L"}, {"measurement": "Triglyceride TG", "setting": "[1]", "value": "1.01 ± 0.24", "unit": "mmol/L"}, {"measurement": "Weight after administration", "setting": "[1]", "value": "328 ± 32", "unit": "g"}]}
{"compound": "CCCCC/C=C\\C/C=C\\CCCCCCCC(=O)Oc1ccc(-c2coc3cc(OC)ccc3c2=O)cc1", "note": "[II-2, 7-methoxy-4′-O-linoleoyl daizeol]", "values": [{"measurement": "Fat index", "setting": "[1]", "value": "5.1 ± 1.3", "unit": "g/100 g"}, {"measurement": "Free fatty acid FFA", "setting": "[1]", "value": "658.8 ± 201.2", "unit": "µmol/L"}, {"measurement": "Total cholesterol TC", "setting": "[1]", "value": "1.67 ± 0.23", "unit": "mmol/L"}, {"measurement": "Triglyceride TG", "setting": "[1]", "value": "1.03 ± 0.21", "unit": "mmol/L"}, {"measurement": "Weight after administration", "setting": "[1]", "value": "318 ± 28", "unit": "g"}]}
{"compound": "CCCCCCCCCCCCCCCCCC(=O)Oc1ccc(-c2coc3cc(OC)ccc3c2=O)cc1", "note": "[II-3, 7-methoxy-4′-O-stearoyl daizeol]", "values": [{"measurement": "Fat index", "setting": "[1]", "value": "6.0 ± 2.1", "unit": "g/100 g"}, {"measurement": "Free fatty acid FFA", "setting": "[1]", "value": "738.1 ± 196.0", "unit": "µmol/L"}, {"measurement": "Total cholesterol TC", "setting": "[1]", "value": "1.71 ± 0.34", "unit": "mmol/L"}, {"measurement": "Triglyceride TG", "setting": "[1]", "value": "1.35 ± 0.35", "unit": "mmol/L"}, {"measurement": "Weight after administration", "setting": "[1]", "value": "352 ± 47", "unit": "g"}]}
{"compound": "CCCCCCCC/C=C\\CCCCCCCC(=O)Oc1ccc2c(c1)CC[C@@H]1[C@@H]2CC[C@]2(C)C(=O)CC[C@@H]12", "note": "[OE, Oleoyl-estrone]", "values": [{"measurement": "Half-life", "setting": "[2]; intravenous injection", "value": 4.17, "unit": "min"}, {"measurement": "Fraction absorbed in estrone water-soluble ester", "setting": "[2]; oral administration", "value": 12, "unit": "%"}, {"measurement": "Fraction absorbed in free estrone form", "setting": "[2]; oral administration", "value": 17, "unit": "%"}]}
{"compound": "CC(C)CC(N(C)C)C1(c2ccc(Cl)cc2)CCC1", "note": "(centres unmarked) [Sibutramine, reference compound]", "values": [{"measurement": "Fat index", "setting": "[1]", "value": "4.3 ± 1.7", "unit": "g/100 g"}, {"measurement": "Free fatty acid FFA", "setting": "[1]", "value": "609.6 ± 138.3", "unit": "µmol/L"}, {"measurement": "Total cholesterol TC", "setting": "[1]", "value": "1.32 ± 0.29", "unit": "mmol/L"}, {"measurement": "Triglyceride TG", "setting": "[1]", "value": "0.97 ± 0.31", "unit": "mmol/L"}, {"measurement": "Weight after administration", "setting": "[1]", "value": "301 ± 41", "unit": "g"}]}
